Experimental findings from PubChem BioAssay AID2165 (The Scripps Research Institute Molecular Screening Center, 2009) are described below.

Usually IC50 stands for the concentration that gives 50% inhibition.

The source made the active and inactive calls. No stated cut-off is given here; in the data, active means IC50 below about 9 µM; inactive means the rest.

This experiment deals with Tyrosine-protein kinase JAK2 (Homo sapiens) (UniProt O60674). Description: JAK2V617F kinase, IRF1 reporter and Ba/F3 cytotoxicity panel, late-stage follow-up, HEL and Ba/F3 cells (AID 2165).
Chain of Tyrosine-protein kinase JAK2 (Homo sapiens) (O60674 whole entry, looked up, change not shown): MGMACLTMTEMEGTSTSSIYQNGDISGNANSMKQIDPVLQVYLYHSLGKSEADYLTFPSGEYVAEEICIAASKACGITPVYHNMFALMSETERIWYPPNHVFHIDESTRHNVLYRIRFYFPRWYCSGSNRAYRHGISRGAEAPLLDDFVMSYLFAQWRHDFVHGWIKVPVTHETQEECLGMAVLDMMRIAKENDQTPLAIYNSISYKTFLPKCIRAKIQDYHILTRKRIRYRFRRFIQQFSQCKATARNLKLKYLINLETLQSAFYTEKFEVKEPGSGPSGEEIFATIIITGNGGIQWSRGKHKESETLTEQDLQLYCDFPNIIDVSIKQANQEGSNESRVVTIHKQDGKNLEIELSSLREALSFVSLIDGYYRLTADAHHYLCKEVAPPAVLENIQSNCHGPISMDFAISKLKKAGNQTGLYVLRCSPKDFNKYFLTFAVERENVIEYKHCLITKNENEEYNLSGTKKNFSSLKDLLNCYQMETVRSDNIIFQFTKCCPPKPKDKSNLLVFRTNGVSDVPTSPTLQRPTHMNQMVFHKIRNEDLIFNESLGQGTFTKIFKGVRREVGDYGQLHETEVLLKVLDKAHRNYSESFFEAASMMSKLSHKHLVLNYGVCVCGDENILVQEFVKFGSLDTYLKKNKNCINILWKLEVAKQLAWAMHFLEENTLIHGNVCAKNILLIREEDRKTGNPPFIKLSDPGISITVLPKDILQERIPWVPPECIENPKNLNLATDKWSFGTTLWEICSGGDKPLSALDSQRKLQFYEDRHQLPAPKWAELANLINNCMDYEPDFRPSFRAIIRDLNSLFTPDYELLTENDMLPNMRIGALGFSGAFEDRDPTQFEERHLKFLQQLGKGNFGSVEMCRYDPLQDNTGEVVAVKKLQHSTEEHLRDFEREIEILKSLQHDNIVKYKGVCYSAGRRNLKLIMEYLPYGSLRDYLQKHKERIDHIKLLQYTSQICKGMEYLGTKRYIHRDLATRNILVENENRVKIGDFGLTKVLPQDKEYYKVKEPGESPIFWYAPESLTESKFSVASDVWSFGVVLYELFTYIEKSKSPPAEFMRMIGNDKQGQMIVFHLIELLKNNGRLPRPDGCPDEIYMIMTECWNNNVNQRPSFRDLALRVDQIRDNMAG

With `COc1cc(C=C(C#N)C(N)=O)cc(CSc2ccccc2)c1O`, the IC50 runs as follows: (Ba/F3, irf1 reporter) > 40 µM (inactive); (HEL, irf1 reporter) > 40 µM (inactive); (JAK2V617F) > 40 µM (inactive).

Regarding `Cc1[nH]c(=O)c(C(=O)/C=C/c2ccccc2)c2c1CCCC2`, the IC50 (Ba/F3, irf1 reporter) is > 40 µM (inactive); the IC50 (HEL, irf1 reporter) is 2.03 µM; the IC50 (JAK2V617F) was 1.15 µM.

Take `O=C(CCl)N=c1sccn1Cc1ccc(Cl)cc1Cl`: the IC50 reads like this: (Ba/F3, irf1 reporter) 6.08 µM; (HEL, irf1 reporter) 2.22 µM.

`Cc1[nH]c(=O)c(C(=O)C=Cc2ccc(Cl)cc2Cl)c2c1CCCC2`: the IC50 was 0.53 µM (Ba/F3, irf1 reporter); 2.57 µM (HEL, irf1 reporter); 1.43 µM (JAK2V617F).

Consider `O=S(=O)(c1cnc(Cl)c(Cl)c1)N1CCc2ccccc21`, for which the concentration for half-maximal inhibition (IC50) (Ba/F3, irf1 reporter) is 6.39 µM and the IC50 (HEL, irf1 reporter) was > 40 µM (inactive).

On to `Cc1cc2[nH]c3c(c[n+](C)c4ccccc34)c2cc1C`, for which the IC50 by setting is: (Ba/F3, irf1 reporter) 7.72 µM; (HEL, irf1 reporter) 7.35 µM.

For the molecule `O=C(CCl)NCc1cc(-c2ccc(Cl)cc2)no1`, the half-inhibitory concentration (IC50) by setting is: (Ba/F3, irf1 reporter) 5.56 µM; (HEL, irf1 reporter) 7.68 µM.

With `Cc1ccc(O)c(NC(=O)COc2cccc(C)c2C)c1`, the IC50 (JAK2V617F) is > 40 µM (inactive).

As to `Cc1ccc(O)c(NC(=O)COc2cc(C)ccc2C)c1`, the 50% inhibitory concentration (IC50) (JAK2V617F) is 2.23 µM.

For the molecule `O=C(Nc1cccc2c1[nH]c1ccccc12)C(F)(F)F`, the IC50 (Ba/F3, irf1 reporter) is 18.9 µM and the concentration for half-maximal inhibition (IC50) (HEL, irf1 reporter) was 3.68 µM.

For the molecule `O=C(OCn1ncc(Cl)c(Cl)c1=O)c1ccc(F)cc1`, the IC50 reads like this: (Ba/F3, irf1 reporter) 1.94 µM; (HEL, irf1 reporter) 8.04 µM.

Take `C/C(=C\c1ccc(N(C)C)cc1)[N+](=O)[O-]`: the concentration for half-maximal inhibition (IC50) is, setting by setting: (Ba/F3, irf1 reporter) 2.65 µM; (HEL, irf1 reporter) 4.29 µM.

As to `Oc1ccc(/C=N/N2CCN(C3c4ccccc4-c4ccccc43)CC2)cc1O`, the half-maximal inhibitory concentration (IC50) was 2.47 µM (Ba/F3, irf1 reporter) and 5.15 µM (HEL, irf1 reporter).

In the case of `Nc1nc(CCl)nc(N(c2ccccc2)c2ccccc2)n1`, the half-inhibitory concentration (IC50) (Ba/F3, irf1 reporter) is 14.3 µM and the IC50 (HEL, irf1 reporter) is 2.64 µM.

In the case of `CCN1C/C(=C/c2ccc(OC)c(O)c2)C(=O)/C(=C/c2ccc(OC)c(O)c2)C1`, the IC50 is 2.36 µM (Ba/F3, irf1 reporter) and 2.75 µM (HEL, irf1 reporter).

As to `O=C(COc1ccccc1)Nc1ncccn1`, the IC50 by setting is: (HEL, irf1 reporter) > 40 µM (inactive); (JAK2V617F) > 40 µM (inactive).

`COc1cc2ncnc(Sc3ccc(Cl)cc3)c2cc1OC`: the IC50 reads like this: (HEL, irf1 reporter) > 40 µM (inactive); (JAK2V617F) > 40 µM (inactive).

`CCOc1ccc(C(=O)C(CN2CCOCC2)c2ccccc2)cc1` (stereo unspecified): the IC50 by setting is: (Ba/F3, irf1 reporter) 16.6 µM; (HEL, irf1 reporter) 11 µM.

With `C/C(=C\c1ccccc1F)C(=O)c1c(C)cc(C)[nH]c1=O`, the IC50 is > 40 µM (inactive) (Ba/F3, irf1 reporter); 3.24 µM (HEL, irf1 reporter); > 40 µM (inactive) (JAK2V617F).

On to `Cc1[nH]c(=O)c(C(=O)C=Cc2ccc(I)cc2)c2c1CCCC2`, for which the IC50 is 0.82 µM (Ba/F3, irf1 reporter); 11.2 µM (HEL, irf1 reporter); > 40 µM (inactive) (JAK2V617F).

With `COc1ccc(Cl)cc1NC(=O)NC(C)c1ccncc1` (stereo unspecified), the IC50 is > 40 µM (inactive) (HEL, irf1 reporter) and > 40 µM (inactive) (JAK2V617F).

As for `COc1ccc(OCC(=O)Nc2cc(C)ccc2O)cc1`, for the setting “JAK2V617F”, the concentration for half-maximal inhibition (IC50) was 3.4 µM.

For `O=C(/C(=N/N=C/c1ccc(O)c(O)c1)c1ccccc1)c1ccccc1`, the IC50 reads like this: (Ba/F3, irf1 reporter) 6.61 µM; (HEL, irf1 reporter) 9.46 µM.

As to `O=C1/C(=C/c2ccc(O)c(O)c2)SC(=S)N1Nc1ccccc1`, the IC50 is 4.04 µM (Ba/F3, irf1 reporter) and 10.2 µM (HEL, irf1 reporter).

As for `CCS(=O)(=O)c1ccc(O)c(NC(=O)COc2cccc(C)c2)c1`, where the note is “JAK2V617F”, the IC50 is > 40 µM (inactive).

Consider `Oc1ccc(Cl)cc1N=Cc1sc2ccccc2c1Cl`, for which the IC50 was 3.42 µM (Ba/F3, irf1 reporter) and 5.53 µM (HEL, irf1 reporter).

Take `CCCCCCN(C(=O)CCl)c1ccccc1`: the IC50 is 3.62 µM (Ba/F3, irf1 reporter) and 8.71 µM (HEL, irf1 reporter).

As to `COc1ccccc1/C=C/C(=O)c1c2c(c(C)[nH]c1=O)CCCC2`, the IC50 runs as follows: (Ba/F3, irf1 reporter) > 40 µM (inactive); (HEL, irf1 reporter) 1.3 µM; (JAK2V617F) 1.27 µM.

On to `C=CCNc1ncnc2cc(OC)c(OC)cc12`, for which the IC50 runs as follows: (HEL, irf1 reporter) > 40 µM (inactive); (JAK2V617F) > 40 µM (inactive).

For the molecule `Cc1cccc(OCC(=O)Nc2ccc(C)c(C)c2)c1`, the IC50 (JAK2V617F) was > 40 µM (inactive).

Consider `COc1cc2ncnc(Nc3ccc(O)c(Br)c3)c2cc1OC`, for which the IC50 is 2.18 µM (Ba/F3, irf1 reporter); 2.98 µM (HEL, irf1 reporter); 30.3 µM (JAK2V617F).

Consider `COCCOc1cc2ncnc(Nc3cccc(C#Cc4ccc(-c5ccccc5)cc4)c3)c2cc1OCCOC`, for which the IC50 was > 40 µM (inactive) (HEL, irf1 reporter) and 3.81 µM (JAK2V617F).

On to `N#C/C(=C\c1ccc(O)c(O)c1)C(=O)NCCc1ccccc1`, for which the IC50 (Ba/F3, irf1 reporter) was 0.2 µM; the IC50 (HEL, irf1 reporter) was 5.15 µM; the IC50 (JAK2V617F) was 0.79 µM.

Turning to `CCCOc1ccc(C(=O)C(CN2CCOCC2)c2ccccc2)cc1` (stereo unspecified), the IC50 is > 40 µM (inactive) (Ba/F3, irf1 reporter) and 11.4 µM (HEL, irf1 reporter).
